From patent publication US20050119285A1, “Treatment of neurological disorders related to rapid eye movement (REM) sleep disturbances with NPY Y5 receptor antagonists” (Pfizer Inc, priority 2003, published 2005)
Marks after values point to notes of the source that are not given here.

System: adult, male Wistar rats
Experiment: Sleep measurement by EEG in rats (in vivo sleep study)
Parameters: species or system rat
Conditions: for Maximal change in REM sleep: cumulative time in REM sleep compared to vehicle controls, first 24 hours after dose
Procedure: Sleep measurement by EEG: For the EEG sleep measurements, adult, male Wistar rats were anesthetized and surgically implanted with a cranial implant for chronic electro-encephalogram (EEG) and electromyogram (EMG) recording. At least three weeks were allowed for the animal to recover from surgery. Food and water were available ad libitum and the ambient temperature was 24±1° C. A 24-hr light-dark cycle (LD 12:12) was maintained throughout the study using fluorescent light. Light intensity averaged 35-40 lux at mid-level inside the cage. Animals were undisturbed for two days before and after each treatment. Sleep and wakefulness were determined using a microcomputer-based sleep-wake and physiological monitoring system. The system monitored amplified EEG (×10,000, bandpass 1-30 Hz; digitization rate 100 Hz, integrated EMG (bandpass 10-100 Hz, RMS integration), and telemetered body temperature and non-specific locomotor activity and drinking activity, from 16 rodents simultaneously. Arousal states were classified on-line as NREM sleep, REM sleep, wake, or theta-domihated wake every 10 seconds using EEG period and amplitude feature extraction and ranked membership algorithms. Individually taught EEG-arousal-state templates and EMG criteria differentiated REM sleep from theta-dominated wake. Drinking and locomotor activity were automatically recorded as discrete events every 10 seconds, and body temperature was recorded each minute. Data quality was assured by frequent on-line inspection of the EEG and EMG signals.
Drug Treatment: A NPY Y1 receptor antagonist was administered at 5, 10, 20 or 40 mg/kg in 0.25% methylcellulose vehicle. The NPY Y5 receptor antagonist of Formula la was administered at 5, 10 or 40 mg/kg and the NPY Y5 receptor antagonist of Formula IIa was administered at 10 and 40 mg/kg (both in 32% hydroxypropyl-betacyclodextrin vehicle). Drugs and vehicles were administered by oral gavage. Rats were randomly assigned to receive treatments in […]. The recording duration for the bioassay was 30 hours before and after treatment. At least 7 days “washout” elapsed between each treatment.
Variables recorded by EEG sleep-wake variables included NREM, REM, total sleep, and duration of sleep and wake bouts and were defined and computed as follows: • Wakefulness, NREM sleep, and REM sleep: percent time in state per hour or per 5 minute bin. • Cumulation of total sleep, NREM sleep, REM sleep, locomotor activity, and drink activity: post-treatment accumulated change over baseline. Change—from-baseline scores were computed by subtracting from the post-treatment value the baseline value at the corresponding circadian time. The change-from-baseline scores were then cumulated in hourly bins, and these values were plotted. • Sleep, wakefulness, and REM sleep bouts: The longest bout and the average bout of uninterrupted sleep each hour, measured in minutes. “Interruption” is defined as 3 or more consecutive 10 sec epochs of wakefulness. An analogous quantification is carried out for bouts of wakefulness and REM sleep. […] Pre-clinical measures of sleep bout length are also strong predictors of soporific efficacy in humans. • Locomotor activity: counts per hour or counts per 5 minute bin. • Locomotor activity intensity: locomotor activity counts per minute of EEG-defined wakefulness. This variate allows an assessment of locomotor activity that is independent of the amount of time awake, thus, it may be used to quantify the specificity of a wake- or sleep-promoting effect (Edgar et al. 1997).
Statistical Analysis—Mixed Model: Treatment effects were analyzed by a mixed model for repeated measures data. Mixed models were performed comparing each active-treatment with vehicle. For all models analysis was based on post-treatment hours with each hour adjusted for the corresponding baseline hour. Adjusting for baseline takes into account any differences between groups during baseline. […]

[1] = 5, 10 and 40 mg/kg, oral gavage

Question: With `O=C1OC2(CCN(C(=O)Nc3ccc(C(F)(F)F)cn3)CC2)c2ccccc21` [Formula Ia] as the compound, how does the “Effect on NREM sleep” value [1] read?
Answer: increased NPEM sleep

Question: And the “Effect on REM sleep” value [1]?
Answer: significantly reduced REM sleep in a dose-related manner

Question: And the “Effect on sleep continuity (sleep bout length)” value [1]?
Answer: increased

Question: And the “Persistence of REM sleep inhibiting and NREM sleep promoting effects” value (after 40 mg/kg, oral gavage)?
Answer: at least 48 hours

Question: What about the “REM sleep inhibiting and NREM sleep promoting effects still observed after dosing” value (after 40 mg/kg, oral gavage) of the same compound?
Answer: ≥ 4.5 days

Question: What about the “Maximal change in REM sleep” value (dose 5 (mg/kg), oral gavage) of the same compound?
Answer: −23.8* minutes

Question: What about the “Maximal change in REM sleep” value (dose 10 (mg/kg), oral gavage) of the same compound?
Answer: −42.6* minutes

Question: What about the “Maximal change in REM sleep” value (dose 40 (mg/kg), oral gavage) of the same compound?
Answer: −74.4* minutes

Question: And the “Effect on sleep (REM and NREM) in a laboratory animal” value (summary statement, no dose given)?
Answer: affected sleep (REM and NREM)
